These results are taken from patent US20240216513A1, “FATTY ACID-BIFUNCTIONAL DEGRADER CONJUGATES AND THEIR METHODS OF USE” (Novartis AG, priority 2021, published 2024).

Data set [1] in a line: BTK FAC plasma stability assay, mouse plasma. Format: in vitro ADME. The following applies: incubation to 24 h. In a few lines:
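Compound from a 500 µM acetonitrile:water working solution was spiked into K3-EDTA plasma or Dulbecco's PBS and incubated with shaking at 38 °C. Samples taken at 0, 2, 6 and 24 h were precipitated with cold acetonitrile containing glyburide internal standard. Semi-quantitative LC-MS/MS used analyte:internal standard peak area ratios.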

The nature of data set [2]: In vivo pharmacokinetic study in mice (i.v. or s.c.), FAC and payload in blood. More on the design: species or system mouse. The following applies: for AUC: male, C57/B16, whole blood.
Data set [3] is described as follows: In vivo pharmacokinetic study in rats (i.v. or s.c.), FAC and payload in blood. More on the design: species or system rat. The following applies: for AUC: male, Sprague-Dawley, rat, whole blood, 1 umol/kg. The protocol:
Pharmacokinetic studies were conducted in male C57/B16 mice; male Sprague-Dawley rats; male Beagle dogs and male Cynomolgus monkeys. 3 animals per group were used for each study performed. All studies were performed in accordance with local animal welfare regulations.
[…] Serial 30 µL blood samples were collected via venipuncture of the tail vein in mouse, and via the cannulated jugular vein in rats at defined timepoints to 216 hours (into EDTA coated tubes).
Each blood sample was precipitated with acetonitrile containing internal standard; samples were mixed and centrifuged (20 minutes 4000 RPM at 4° C.). Supernatant was transferred to a microwell plate and evaporated under nitrogen at 60° C. Residue was resuspended in acetonitrile/water (7:3 v/v); plate sealed and transferred to an ultrasonic bath for 3 minutes, prior to analysis. Quantification was performed by LC-MS/MS (SciexAP16500 Q-trap, Shimadzu Nexera X2) using a Phenomenex Polar RP analytical column (2.5 μm particle size; 50×2 mm). The mobile phase consisted of solvent A (0.1% formic acid in water) and solvent B (0.1% formic acid in acetonitrile). The fatty acid conjugate and API were detected using multiple reaction monitoring.
Data analysis and calculation of non-compartmental pharmacokinetic parameters was
performed using an in-house analysis. Following intravenous administration whole blood clearance was calculated by the dose administered divided by AUC0-inf. Volume of distribution at steady state was calculated as MRT*CL, where MRT is the mean residence time, calculated by AUMC0-inf/AUC0-inf. The half-life (t1/2) of the terminal elimination phase was calculated by 0.693/λ. For both intravenous and subcutaneous administration, the systemic exposures were determined by calculating the area under the blood concentration time curve (AUC) from time zero to the last observed quantifiable concentration (AUClast) by using the linear trapezoidal method and normalised to dose. Extrapolated AUC (AUC0-inf) is calculated by addition of AUClast and AUCtlast-inf; where AUCtlast-inf is calculated based on Clast/λ. The slope of the terminal elimination phase was estimated by linear regression of the terminal data points (minimum 3 points) from a natural log concentration versus time plot of the data. Bioavailability was calculated as the dose normalized ratio of […] AUCinf to intravenous AUCinf (100*[SC AUCinf/SC dose]/[IV AUCinf/IV dose]). Following subcutaneous administration Cmax is calculated as the average maximum observed peak concentration and Tmax is the time associated with the determined Cmax.
For PK experiments, non-tumor bearing mice or rats were treated once (10 mL/kg) with a compound either i.v. or s.c. Serial blood samplings from the tail vein (5-20 μl) were collected during the course of the experiment. For PK/PD experiments in tumor-bearing mice, compound was administered once (10 mL/kg) either i.v. or s.c. Animals were randomized into groups of n=3 and tissue samples were collected at several time points. At the times indicated, animals were anaesthetized by exposure to 2-3% v/v isoflurane in medical oxygen. They were sacrificed without recovering from anesthetic after blood sampling into commercially prepared EDTA coated tubes (Milian, cat #TOM-14C) in order to extract plasma. The tissues were excised, weighted and rapidly frozen in liquid nitrogen. Later, tumors were cryogenic dry pulverized with the CryoPrep™ system (model CP-02, Covaris). For efficacy experiments in ectopic tumor-bearing mice, animals were randomized into groups of n=6 for a mean tumor size of 100 mm^3 and compound was administered either i.v. q3w or s.c. q2w. When implanted in brain, animals were randomized into groups of n=4 for a mean bioluminescence of 1.0-2.0E+06 [p/s]/[ρW/cm^2] and compound was administered i.v. qw. Tumor response were reported with the measures of tumor volumes or bioluminescence from the treatment start. […]

Consider `COc1ccc(C(=O)N2CCC3(CCN(CCc4ccc(-c5cc6c(-c7cc(F)cc(NC(=O)c8ccc(C(C)(C)O)cc8F)c7C)ncnc6[nH]5)cc4)CC3)CC2)cc1N1CCC(=O)NC1=O` [Compound V, N-(3-(6-(4-(2-(9-(3-(2,4-Dioxotetrahydropyrimidin-1(2H)-yl)-4-methoxybenzoyl)-3,9-diazaspiro[5.5]undecan-3-yl)ethyl)phenyl)-7H-pyrrolo[2,3-d]pyrimidin-4-yl)-5-fluoro-2-methylphenyl)-2-fluoro-4-(2-hydroxypropan-2-yl)benzamide], for which the “Plasma stability (h) mouse” value in data set [1] is 27.1 h. Besides, the “Payload C0-uM (unconjugated degrader dosed, first payload cell)” value in data set [2] (API i.v., species taken as mouse, listed as note (1 umol/kg), head 10 umol/kg) was found to be 8.1 µM. Moreover, the AUC (in general, the area under the concentration-time curve, a measure of exposure) in data set [2] (iv, API i.v., species taken as mouse, listed as note (1 umol/kg), head 10 umol/kg, read-out: Payload AUC-uM.h (unconjugated degrader dosed, first payload cell)) came out at 8.2 µM·h; in data set [2] (sc, mouse, subcutaneous dosing, unconjugated Compound V at 1 umol/kg, read-out: Payload AUC), 8.2 µM·h; in data set [3] (iv, API i.v., species taken as rat, listed as note (1 umol/kg), read-out: Payload AUC-uM.h (unconjugated degrader dosed, second payload cell)) it was 0.57 µM·h; in data set [3] (sc, subcutaneous dosing, unconjugated Compound V at 1 umol/kg, read-out: Payload AUC), 0.57 µM·h. Moreover, the “Payload C0-uM (unconjugated degrader dosed, second payload cell)” value in data set [3] (API i.v., species taken as rat, listed as note (1 umol/kg)) stood at 1.1 µM.
